{
  "source": "paper PMC11395237",
  "about": "“Characteristics of a Novel Zearalenone Lactone Hydrolase ZHRnZ and Its Thermostability Modification” (International Journal of Molecular Sciences, 2024)",
  "experiment_in_all_cases": "HPLC-fluorescence of residual substrate",
  "type_in_all_cases": "biochemical",
  "conditions_in_all_cases": "read-out: Km (μg.mL^-1); pH 9.0, 45 °C, 10 min, 25 μg/mL enzyme, 10-60 μg/mL ZEN",
  "key": {"ZHRnZ [1]": {"target": "T1, ZHRnZ (Rosellinia necatrix, UniProt A0A1W2TNW3)", "T1 construct": "gene SAMD00023353_4301030; His-tag from pET28a (BamHI/XhoI), codon-optimized gene, E. coli BL21(DE3), Ni-NTA purified; homodimer by homology model", "T1 sequence (A0A1W2TNW3 entry or part of it)": "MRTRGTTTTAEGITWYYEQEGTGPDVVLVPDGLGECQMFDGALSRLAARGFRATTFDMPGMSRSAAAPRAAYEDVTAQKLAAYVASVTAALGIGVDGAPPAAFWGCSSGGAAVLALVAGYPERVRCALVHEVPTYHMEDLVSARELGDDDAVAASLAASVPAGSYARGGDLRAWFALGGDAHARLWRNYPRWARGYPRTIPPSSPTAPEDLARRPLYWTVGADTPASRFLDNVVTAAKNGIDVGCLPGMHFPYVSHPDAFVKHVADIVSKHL", "excerpt": "(§1) HPLC-fluorescence of residual substrate on ZHRnZ"}, "ZHRnZ [2]": {"target": "T2, ZHRnZ (Rosellinia necatrix, UniProt A0A1W2TNW3, E122Q)", "T2 construct": "gene SAMD00023353_4301030; His-tag from pET28a (BamHI/XhoI), codon-optimized gene, E. coli BL21(DE3), Ni-NTA purified; homodimer by homology model", "T2 sequence (A0A1W2TNW3 whole entry E122Q)": "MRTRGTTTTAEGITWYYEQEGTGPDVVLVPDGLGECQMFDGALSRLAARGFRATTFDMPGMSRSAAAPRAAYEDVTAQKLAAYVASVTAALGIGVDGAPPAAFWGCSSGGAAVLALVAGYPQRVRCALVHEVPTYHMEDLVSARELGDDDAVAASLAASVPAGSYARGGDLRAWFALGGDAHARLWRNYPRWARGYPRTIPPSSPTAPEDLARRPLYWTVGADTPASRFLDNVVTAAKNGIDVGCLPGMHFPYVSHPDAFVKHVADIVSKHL", "excerpt": "as §1"}, "ZHRnZ [3]": {"target": "T3, ZHRnZ (Rosellinia necatrix, UniProt A0A1W2TNW3, E122R)", "T3 construct": "gene SAMD00023353_4301030; His-tag from pET28a (BamHI/XhoI), codon-optimized gene, E. coli BL21(DE3), Ni-NTA purified; homodimer by homology model", "T3 sequence (A0A1W2TNW3 whole entry E122R)": "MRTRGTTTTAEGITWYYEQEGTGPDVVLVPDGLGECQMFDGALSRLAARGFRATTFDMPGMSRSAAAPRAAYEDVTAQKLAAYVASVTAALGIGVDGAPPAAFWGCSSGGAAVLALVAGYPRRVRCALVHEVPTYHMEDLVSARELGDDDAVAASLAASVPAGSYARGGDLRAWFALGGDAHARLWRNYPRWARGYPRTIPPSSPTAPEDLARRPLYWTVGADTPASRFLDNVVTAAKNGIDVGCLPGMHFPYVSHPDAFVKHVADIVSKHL", "excerpt": "as §1"}},
  "data": [
    {"compound": "C[C@H]1CCCC(=O)CCC/C=C/c2cc(O)cc(O)c2C(=O)O1", "note": "[ZEN]", "values": [
      {"measurement": "Km", "setting": "ZHRnZ [1]", "result": 67.6, "unit": "µM"},
      {"measurement": "Km", "setting": "ZHRnZ [2]", "result": 271, "unit": "µM"},
      {"measurement": "Km", "setting": "ZHRnZ [3]", "result": 25.5, "unit": "µM"}
    ]}
  ]
}
